Data set [1] is described as follows: Cmax in Sprague-Dawley rat at 20 mg/kg, po after 24 hrs by LC/MS/MS analysis. It counts as ADME, organism-based. The arrangement: dose 20 mg/kg, route oral. The following applies: in vivo.
Data set [2] is described as follows: Tmax in Sprague-Dawley rat at 5 mg/kg, po by LC/MS/MS analysis. The conditions noted are these: in vivo. It counts as ADME, organism-based. The arrangement: dose 5 mg/kg, route oral.
The nature of data set [3]: AUC (0 to infinity) in monkey at 7.5 mg/kg, po after 24 hrs by LC/MS/MS analysis. The data set is classed as ADME, organism-based, Macaca mulatta. The arrangement: dose 7.5 mg/kg, route oral, time infinity. The following applies: rhesus monkey, plasma.
The nature of data set [4]: Apparent elimination half life in monkey at 7.5 mg/kg, po after 24 hrs by LC/MS/MS analysis. It counts as ADME, organism-based, Macaca mulatta. The arrangement: dose 7.5 mg/kg, route oral. The following applies: rhesus monkey, in vivo.
The subject of a further data set is Hepatocyte. The experiment in a line: Cellular uptake in human hepatocytes assessed per mg of cellular protein association with hepatocyte fraction at 0.378 uM after 1 hr by LC/MS/MS analysis. It counts as ADME, cell-based.
The nature of data set [5]: Cytotoxicity against human PBMC assessed as cell viability at 10 uM after 18 hrs relative to control. The data set is classed as cell-based. The conditions noted are these: read-out: Activity.
A further data set deals with Hepatitis C virus. Nature of the data set: microbe, parasite or virus in culture. The following applies: Huh-7, 72 h.

SMILES strings stand for the structures.

`C/C=C/C[C@@H](C)[C@@H](O)[C@H]1C(=O)N[C@@H](CC)C(=O)N(C)C(SCCN(C)C)C(=O)N(C)[C@@H](CC(C)(C)O)C(=O)N[C@@H](C(C)C)C(=O)N(C)[C@@H](CC(C)C)C(=O)N[C@@H](C)C(=O)N[C@H](C)C(=O)N(C)[C@@H](CC(C)C)C(=O)N(C)[C@@H](CC(C)C)C(=O)N(C)[C@@H](C(C)C)C(=O)N1C` (single isomer, unassigned) [SCY 635]: in data set [1], the Cmax is 1760 ng/mL. Also, the time of peak concentration (Tmax) in data set [2] was determined as 4 h. The compound further yielded an AUC(0-inf) in data set [3] of 42000 ng·h/mL. For the same compound, the half-life in data set [4] is 33.1 h. This compound yielded a Drug uptake with Hepatocyte of 1.03 ng/mg. Moreover, the viability at 18 h, 10 µM in data set [5] worked out at 10.9%. In the data set on Hepatitis C virus, the midpoint of the response, the EC50, lay at 90 nM.

(Values after ChEMBL document CHEMBL1212786 (Antimicrob Agents Chemother, 2010).)
